# Measurements: patent publication US12358870B2, “Solid dispersions and pharmaceutical compositions comprising a substituted indane and methods for the preparation and use thereof” (Peloton Therapeutics Inc., priority 2018, dated 2025)
# Experiments:
# [1] = system: 786-O-Hif-Luc cells; assay: Luciferase Assay; type: cell-based; details: luciferase activity after about 24 hours
# Experimental: A pool of infected cells were then selected against 2 μg/mL of puromycin (P8833, Sigma) for 10 days followed by limited dilution to select single clones.
# Each concentration was tested in triplicate. After about 24 hours, luciferase activity was determined using ONE-Glo Luciferase Assay Reagent (E6110, Promega) following the manufacturer's recommended procedure.
# [2] = Solubility in acetone/H2O combinations, equilibrated 48 hours; type: physicochemical; details: 48 hours at room temperature
# Description: The second measurement was completed to further evaluate acetone/H2O combinations in 1% H2O increments.
# [3] = Solubility in acetone and acetone/H2O mixtures, 30 minutes; details: room temperature
# Experimental: The first measurement was conducted at room temperature over 30 minutes with mixing completed by spinning in centrifuge tubes.
# [4] = Glass transition temperature (Tg) by mDSC; type: physicochemical; details: neat compound, Example 1
# Experimental: MDSC was performed using a TA Instruments Q2000 differential scanning calorimeter equipped with a TA instruments Refrigerated Cooling System 90. MDSC was used to measure glass transition temperature (Tg) and melting temperature (Tm), if present. The temperature range was adjusted from 0-250° C. with a heating rate of 1.5° C./min. The scanning mode was modulated where the modulation frequency was 60 seconds and modulation amplitude 1° C.
# The effect of relative humidity on the Tg was examined for the solid dispersion. The solid dispersion was exposed to humidity levels of 33%, 50% or 75% for 24 hours. Following exposure, the samples were capped in hermetically sealed DSC pans for analysis. […] As shown, the Tg dropped to 71° C. and 51° C. when exposed to 33% and 75% RH, respectively. […] The solid dispersion was packaged in packaging that maintains RH values <33% for long-term storage.
# [5] = Suspension stability monitored by SGF/FaSSIF dissolution test; type: physicochemical
# Experimental: The performance of each solid dispersion suspension was monitored at 4 and 24 hours after preparation using the SGF/FaSSIF dissolution test as the comparative metric.
# The suspension stability dissolution profiles for the solid dispersion formulations held for 4 hours or 24 hours can be found in Tables 8 and 9, respectively. The dissolution tests were dosed at 2.0 mgA/mL in SGF and upon transfer into FaSSIF were reduced to 1.0 mgA/mL. It is expected that the solid dispersion suspensions can be held for up to 4 hours prior to dosing.
# [6] = Non-sink gastric transfer dissolution test (SGF to FaSSIF); type: physicochemical
# Experimental: The dissolution performance of the solid dispersions was tested in a non-sink dissolution test. […] During the test, samples were transferred from SGF [theoretical Cmax=2000 μgA/mL] to FaSSIF [theoretical Cmax=1000 μgA/mL].
# [7] = Solubility and sink factor in dissolution media at pH 2 and 6.8; details: for Sink Factor (10 mg) / Sink Factor (40 mg): 900 mL media
# [8] = system: VEGF; assay: VEGF ELISA Assay in 786-O cells; type: cell-based; details: Homo sapiens, 786-0; VEGF concentration in 786-O cell culture medium
# Experimental: Each concentration was plated in duplicate. About 20 hours later, medium was removed by suction and each well was supplied with 180 μL of growth medium. About 20 μl freshly-made 10× compound stocks were added to each well. […] The EC50 was calculated by GraphPad Prism using the dose-response-inhibition (four parameter) equation. The cell-seeded plate was then subjected to CellTiter-Glo luminescence cell viability assay (Promega) by adding 50 μL of Celltiter Glo reagent into each well and shaking the plate for 8 minutes at 550 rpm (Thermomixer R, Eppendorf) then the luminescence signal immediately read in a plate reader (3 second delay, 0.5 second/well integration time, Synergy 2 multi Detection Microplate reader).
# [9] = Example 6, lipid vehicle capsules
# [10] = pH 2.0 (0.01N HCl) w/0.5% Tween 80
# [11] = pH 2.0 (0.01N HCl) w/1% Tween 80
# [12] = pH 6.8 (50 mM NaH2PO4) w/0.5% CTAB
# [13] = pH 6.8 (50 mM NaH2PO4) w/0.5% SLS
# [14] = pH 6.8 (50 mM NaH2PO4) w/0.5% Tween 80
# [15] = pH 6.8 (50 mM NaH2PO4) w/1% CTAB
# [16] = pH 6.8 (50 mM NaH2PO4) w/1% SLS
# [17] = pH 6.8 (50 mM NaH2PO4) w/1% Tween 80
smiles,measurement,setting,value
"CS(=O)(=O)c1ccc(Oc2cc(F)cc(C#N)c2)c2c1[C@H](O)[C@H](F)[C@@H]2F [compound of Formula (I), 3-(((1S,2S,3R)-2,3-difluoro-1-hydroxy-7-(methylsulfonyl)-2,3-dihydro-1H-inden-4-yl)oxy)-5-fluorobenzonitrile]",EC50,[1],< 50 nM
same,solubility,[2]; 95/5% Acetone/H2O,6.6 wt. %
same,solubility,[2]; 96/4% Acetone/H2O,6.3 wt. %
same,solubility,[2]; 97/3% Acetone/H2O,6.7 wt. %
same,solubility,[2]; 98/2% Acetone/H2O,6.6 wt. %
same,solubility,[2]; 99/1% Acetone/H2O,6.0 wt. %
same,solubility,[2]; 100% Acetone,6.0 wt. %
same,solubility,[3]; 87.5/12.5% Acetone/H2O,5.8 wt. %
same,solubility,[3]; 90/10% Acetone/H2O,7.1 wt. %
same,solubility,[3]; 92.5/7.5% Acetone/H2O,6.7 wt. %
same,solubility,[3]; 95/5% Acetone/H2O,7.5 wt. %
same,solubility,[3]; 97.5/2.5% Acetone/H2O,7.3 wt. %
same,solubility,[3]; 100% Acetone,6.2 wt. %
same,glass transition temperature (Tg),[4],79.9 °C
same,Cmax GB,[5]; 10 mgA/mL suspension in 1 wt. % 1:1 methyl-cellulose:Tween 80 held 4 hours,18.3 μgA/mL
same,Cmax GB,[5]; 10 mgA/mL suspension in 1 wt. % 1:1 methyl-cellulose:Tween 80 held 24 hours,35.8 μgA/mL
same,AUC Enhancement,[5]; suspension held 4 hours,1.0
same,AUC FaSSIF,[5]; suspension held 4 hours,2600 μgA/mL*min
same,Cmax FaSSIF,[5]; suspension held 4 hours,15.5 μgA/mL
same,AUC Enhancement,[5]; suspension held 24 hours,1.0
same,AUC FaSSIF,[5]; suspension held 24 hours,5600 μgA/mL*min
same,Cmax FaSSIF,[5]; suspension held 24 hours,33.0 μgA/mL
same,AUC Enhancement,"[6]; Example 2, AUC solid dispersion/AUC crystalline compound of Formula (I)",1
same,Cmax GB,"[6]; Example 2, SGF, 30 minutes",12 μgA/mL
same,Cmax FaSSIF,"[6]; Example 2, after transfer to FaSSIF",16 μgA/mL
same,AUC FaSSIF,"[6]; Example 2, post gastric transfer",2600 μgA/mL*min
same,Cmax GB,"[6]; Example 6, capsules, 5 wt. % compound in lipid vehicle",14 μgA/mL
same,AUC FaSSIF,[6]; [9],3021 μgA/mL*min
same,Cmax FaSSIF,[6]; [9],19 μgA/mL
same,AUC Enhancement,"[6]; Example 6, versus bulk crystalline drug",1.0
same,solubility,[7]; pH 2,100 µg/mL
same,Sink Factor (10 mg),[7]; pH 2.0 (0.01N HCl) w/0.5% CTAB,5.4
same,Sink Factor (40 mg),[7]; pH 2.0 (0.01N HCl) w/0.5% CTAB,1.4
same,Sink Factor (10 mg),[7]; pH 2.0 (0.01N HCl) w/0.5% SLS,3.6
same,Sink Factor (40 mg),[7]; pH 2.0 (0.01N HCl) w/0.5% SLS,0.9
same,Sink Factor (10 mg),[7]; [10],1.8
same,Sink Factor (40 mg),[7]; [10],0.5
same,Sink Factor (10 mg),[7]; pH 2.0 (0.01N HCl) w/1% CTAB,9
same,Sink Factor (40 mg),[7]; pH 2.0 (0.01N HCl) w/1% CTAB,2.3
same,Sink Factor (10 mg),[7]; pH 2.0 (0.01N HCl) w/1% SLS,6.3
same,Sink Factor (40 mg),[7]; pH 2.0 (0.01N HCl) w/1% SLS,1.6
same,Sink Factor (10 mg),[7]; [11],1.8
same,Sink Factor (40 mg),[7]; [11],0.5
same,Sink Factor (10 mg),[7]; pH 2.0 (0.01N HCl),0.9
same,Sink Factor (40 mg),[7]; pH 2.0 (0.01N HCl),0.2
same,solubility,"[7]; pH 2, aqueous with cosolvent or surfactant or cyclodextrin, thermodynamic from solid, Solubility",60 µg/mL
same,solubility,"[7]; pH 2, aqueous with cosolvent or surfactant or cyclodextrin, thermodynamic from solid, Solubility, pH 2.0 (0.01N HCl) w/0.5% SLS",40 µg/mL
same,solubility,"[7]; pH 2, aqueous with cosolvent or surfactant or cyclodextrin, thermodynamic from solid, Solubility, pH 2.0 (0.01N HCl) w/0.5% Tween 80",20 µg/mL
same,solubility,"[7]; pH 2, aqueous with cosolvent or surfactant or cyclodextrin, thermodynamic from solid, Solubility, pH 2.0 (0.01N HCl) w/1% SLS",70 µg/mL
same,solubility,"[7]; pH 2, aqueous with cosolvent or surfactant or cyclodextrin, thermodynamic from solid, Solubility, pH 2.0 (0.01N HCl) w/1% Tween 80",20 µg/mL
same,solubility,"[7]; pH 2, simulated gastric fluid, thermodynamic from solid, Solubility, pH 2.0 (0.01N HCl)",10 µg/mL
same,Sink Factor (10 mg),[7]; [12],6.3
same,Sink Factor (40 mg),[7]; [12],1.6
same,Sink Factor (10 mg),[7]; [13],3.6
same,Sink Factor (40 mg),[7]; [13],0.9
same,Sink Factor (10 mg),[7]; [14],1.8
same,Sink Factor (40 mg),[7]; [14],0.5
same,Sink Factor (10 mg),[7]; [15],9.9
same,Sink Factor (40 mg),[7]; [15],2.5
same,Sink Factor (10 mg),[7]; [16],6.3
same,Sink Factor (40 mg),[7]; [16],1.6
same,Sink Factor (10 mg),[7]; [17],1.8
same,Sink Factor (40 mg),[7]; [17],0.5
same,Sink Factor (10 mg),[7]; pH 6.8 (50 mM NaH2PO4),0.9
same,Sink Factor (40 mg),[7]; pH 6.8 (50 mM NaH2PO4),0.2
same,solubility,"[7]; pH 6.8, aqueous buffer, thermodynamic from solid, Solubility, pH 6.8 (50 mM NaH2PO4)",10 µg/mL
same,solubility,"[7]; pH 6.8, aqueous with cosolvent or surfactant or cyclodextrin, thermodynamic from solid, Solubility, pH 6.8 (50 mM NaH2PO4) w/0.5% CTAB",70 µg/mL
same,solubility,"[7]; pH 6.8, aqueous with cosolvent or surfactant or cyclodextrin, thermodynamic from solid, Solubility, pH 6.8 (50 mM NaH2PO4) w/0.5% SLS",40 µg/mL
same,solubility,"[7]; pH 6.8, aqueous with cosolvent or surfactant or cyclodextrin, thermodynamic from solid, Solubility, pH 6.8 (50 mM NaH2PO4) w/0.5% Tween 80",20 µg/mL
same,solubility,"[7]; pH 6.8, aqueous with cosolvent or surfactant or cyclodextrin, thermodynamic from solid, Solubility, pH 6.8 (50 mM NaH2PO4) w/1% CTAB",110 µg/mL
same,solubility,"[7]; pH 6.8, aqueous with cosolvent or surfactant or cyclodextrin, thermodynamic from solid, Solubility, pH 6.8 (50 mM NaH2PO4) w/1% SLS",70 µg/mL
same,solubility,"[7]; pH 6.8, aqueous with cosolvent or surfactant or cyclodextrin, thermodynamic from solid, Solubility, pH 6.8 (50 mM NaH2PO4) w/1% Tween 80",20 µg/mL
same,EC50,[8],< 50 nM
